From US20250099434A1, “METHODS OF TREATING AMYLOID RELATED BRAIN DISORDERS USING NOVEL COMPOUNDS AND ANTIBODIES” (T3D Therapeutics, Inc., priority 2022, published 2025)
“And” between values parts separate entries of the source, which are not always exact repeats. Identical values can stand only once. Like-named read-outs stand apart in the source and are kept apart here.

Key:
human PPARα = target: T1, human PPARα (Homo sapiens, UniProt Q07869); assay: Human PPAR activation, transient transfection in CV-1 cells (alpha subtype); format: cell-based
T1 construct: expressed in transfected cells; host or cells: CV-1 cells
T1 sequence (Q07869 1-468): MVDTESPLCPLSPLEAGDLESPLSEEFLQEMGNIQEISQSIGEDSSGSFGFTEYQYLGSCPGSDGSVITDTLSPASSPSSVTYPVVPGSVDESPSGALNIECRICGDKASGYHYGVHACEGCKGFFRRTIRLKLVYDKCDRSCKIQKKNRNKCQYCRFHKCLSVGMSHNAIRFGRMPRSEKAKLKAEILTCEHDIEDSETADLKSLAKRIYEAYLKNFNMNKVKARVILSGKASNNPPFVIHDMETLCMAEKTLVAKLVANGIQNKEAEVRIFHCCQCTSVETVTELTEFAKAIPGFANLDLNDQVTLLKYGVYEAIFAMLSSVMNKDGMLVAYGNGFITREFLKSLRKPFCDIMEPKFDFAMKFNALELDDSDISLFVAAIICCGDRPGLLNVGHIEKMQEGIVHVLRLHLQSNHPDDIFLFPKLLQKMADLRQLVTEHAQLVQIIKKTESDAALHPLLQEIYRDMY
From the text: PPAR receptor agonist activity may be determined by conventional screening methods known to the skilled in the art. For example, methods described in U.S. Patent Application Publication No. 2007/0054907, 2008/0262047 and U.S. Pat. No. 7,314,879, which are incorporated by reference in their entireties.
The table summarize the results of studies performed in transfected CV-1 cells with three different lots of Compound of Example 11. […].

[1] = test system: glucose metabolism in the brain
P-glycoprotein (P-gp) = P-glycoprotein (P-gp) (Homo sapiens, UniProt P08183); assay: P-gp substrate assessment (Caco-2, verapamil)
P-glycoprotein (P-gp), sequence (P08183 whole entry): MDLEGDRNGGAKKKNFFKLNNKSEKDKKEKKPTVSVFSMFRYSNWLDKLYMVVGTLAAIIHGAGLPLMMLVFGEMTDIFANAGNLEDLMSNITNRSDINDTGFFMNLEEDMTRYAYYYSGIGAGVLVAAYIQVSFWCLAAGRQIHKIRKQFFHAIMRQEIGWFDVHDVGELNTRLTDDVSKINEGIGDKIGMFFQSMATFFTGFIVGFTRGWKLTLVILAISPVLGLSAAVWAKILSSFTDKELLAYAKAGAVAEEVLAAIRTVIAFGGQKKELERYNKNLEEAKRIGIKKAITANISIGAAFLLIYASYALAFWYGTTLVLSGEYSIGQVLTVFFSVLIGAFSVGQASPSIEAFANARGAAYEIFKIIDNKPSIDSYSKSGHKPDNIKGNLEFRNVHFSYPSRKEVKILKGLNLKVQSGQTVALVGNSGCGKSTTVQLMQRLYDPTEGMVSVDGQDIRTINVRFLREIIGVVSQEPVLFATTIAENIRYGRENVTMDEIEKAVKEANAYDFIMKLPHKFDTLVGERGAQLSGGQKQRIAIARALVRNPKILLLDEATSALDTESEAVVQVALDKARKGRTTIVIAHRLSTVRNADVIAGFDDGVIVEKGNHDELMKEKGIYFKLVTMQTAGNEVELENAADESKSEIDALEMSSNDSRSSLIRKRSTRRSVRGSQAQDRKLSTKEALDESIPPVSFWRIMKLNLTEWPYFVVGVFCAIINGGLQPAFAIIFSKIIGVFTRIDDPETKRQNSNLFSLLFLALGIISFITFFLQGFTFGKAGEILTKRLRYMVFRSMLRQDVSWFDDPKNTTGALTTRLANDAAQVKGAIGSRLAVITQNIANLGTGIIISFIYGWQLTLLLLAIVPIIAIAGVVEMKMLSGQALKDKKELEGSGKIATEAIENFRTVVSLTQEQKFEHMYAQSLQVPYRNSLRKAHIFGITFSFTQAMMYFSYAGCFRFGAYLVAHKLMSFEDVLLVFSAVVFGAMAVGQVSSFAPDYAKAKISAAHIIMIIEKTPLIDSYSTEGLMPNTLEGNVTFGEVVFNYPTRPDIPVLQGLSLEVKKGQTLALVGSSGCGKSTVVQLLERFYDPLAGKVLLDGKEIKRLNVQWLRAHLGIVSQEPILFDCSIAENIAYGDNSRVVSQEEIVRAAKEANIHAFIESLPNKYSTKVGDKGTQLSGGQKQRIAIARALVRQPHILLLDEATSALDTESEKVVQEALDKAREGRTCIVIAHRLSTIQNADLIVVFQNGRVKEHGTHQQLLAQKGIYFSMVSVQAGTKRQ

Caco-2 = Caco-2 permeability with and without P-gp inhibitor verapamil; details: absence of a P-gp inhibitor
[2] = time point 1.0, individual rats
[3] = time point 3.0, individual rats
[4] = time point 5.0, individual rats
[5] = time point 7.0, individual rats
[6] = time point 12.0, individual rats
[7] = 3 mg, White Matter as Reference Region
[8] = 3 mg, Whole Brain as Reference Region
[9] = 10 mg, White Matter as Reference Region
[10] = 10 mg, Whole Brain as Reference Region
[11] = 30 mg, White Matter as Reference Region
[12] = 30 mg, Whole Brain as Reference Region
[13] = 90 mg, White Matter as Reference Region
[14] = 90 mg, Whole Brain as Reference Region

## CCc1oc(-c2ccc(OC)cc2)nc1CCOc1ccc2c(c1)CC[C@H]2CC(=O)[O-].[Na+] [Example 11, Sodium (S)-2-(5-(2-(5-ethyl-2-(4-methoxyphenyl)oxazol-4-yl)ethoxy)-2,3-dihydro-1H-inden-1-yl)acetate]
Human PPARα
  Peak effect PPARα: 1.87
  maximal response, human alpha subtype: significantly reduced maximal response
[2]
  B/P Ratio: 0.22 and 0.36 and 0.51
  Brain Tissue Cone.: 226 ng/g and 161 ng/g and 101 ng/g
Time point 1.0, three rats
  Average (B/P Ratio): 0.361
[3]
  B/P Ratio: 0.26 and 0.21 and 0.19
  Brain Tissue Cone.: 234 ng/g and 269 ng/g and 274 ng/g
  Plasma Conc.: 1270 ng/mL and 1430 ng/mL
Time point 3.0, three rats
  Average (B/P Ratio): 0.220
[4]
  B/P Ratio: 0.17 and 0.18 and 0.16
  Brain Tissue Cone.: 208 ng/g and 247 ng/g and 333 ng/g
  Plasma Conc.: 1260 ng/mL and 1340 ng/mL and 2040 ng/mL
Time point 5.0, three rats
  Average (B/P Ratio): 0.171
[5]
  B/P Ratio: 0.16 and 0.35 and 0.47
  Brain Tissue Cone.: 203 ng/g and 216 ng/g
Time point 7.0, three rats
  Average (B/P Ratio): 0.328
[6]
  B/P Ratio: 0.30 and 0.44 and 0.31
  Brain Tissue Cone.: 104 ng/g and 114 ng/g and 117 ng/g
  Plasma Conc.: 345 ng/mL and 259 ng/mL and 377 ng/mL
Time point 12.0, three rats
  Average (B/P Ratio): 0.350
[1]; [7]
  Δ R CMRgI (EOT-BL) Sensory Motor Cortex Left, Ave: −0.0005
  Δ R CMRgI (EOT-BL) Sensory Motor Cortex Right, Ave: −0.0151
  Δ R CMRgI (EOT-BL) Visual Cortex Left, Ave: −0.0219
  Δ R CMRgI (EOT-BL) Visual Cortex Right, Ave: −0.0272
[1]; [8]
  Δ R CMRgI (EOT-BL) Sensory Motor Cortex Left, Ave: 0.0152
  Δ R CMRgI (EOT-BL) Sensory Motor Cortex Right, Ave: −0.0037
  Δ R CMRgI (EOT-BL) Visual Cortex Left, Ave: −0.0196
  Δ R CMRgI (EOT-BL) Visual Cortex Right, Ave: −0.0269
[1]; 10 mg
  spatial extent of ROSDs with positive ΔR CMRgl (EOT-BL) relative to Whole Brain: 70 voxels
[1]; [9]
  Δ R CMRgI (EOT-BL) Sensory Motor Cortex Left, Ave: 0.0005
  Δ R CMRgI (EOT-BL) Sensory Motor Cortex Right, Ave: −0.0005
  Δ R CMRgI (EOT-BL) Visual Cortex Left, Ave: −0.0014
  Δ R CMRgI (EOT-BL) Visual Cortex Right, Ave: −0.0033
[1]; [10]
  Δ R CMRgI (EOT-BL) Sensory Motor Cortex Left, Ave: 0.0008
  Δ R CMRgI (EOT-BL) Sensory Motor Cortex Right, Ave: 0.0003
  Δ R CMRgI (EOT-BL) Visual Cortex Left, Ave: −0.0032
  Δ R CMRgI (EOT-BL) Visual Cortex Right, Ave: −0.0053
[1]; [11]
  Δ R CMRgI (EOT-BL) Sensory Motor Cortex Left, Ave: −0.0040
  Δ R CMRgI (EOT-BL) Sensory Motor Cortex Right, Ave: −0.0229
  Δ R CMRgI (EOT-BL) Visual Cortex Left, Ave: −0.0314
  Δ R CMRgI (EOT-BL) Visual Cortex Right, Ave: −0.0408
[1]; [12]
  Δ R CMRgI (EOT-BL) Sensory Motor Cortex Left, Ave: 0.0213
  Δ R CMRgI (EOT-BL) Sensory Motor Cortex Right, Ave: −0.0040
  Δ R CMRgI (EOT-BL) Visual Cortex Left, Ave: −0.0158
  Δ R CMRgI (EOT-BL) Visual Cortex Right, Ave: −0.0271
[1]; [13]
  Δ R CMRgI (EOT-BL) Sensory Motor Cortex Left, Ave: −0.0076
  Δ R CMRgI (EOT-BL) Sensory Motor Cortex Right, Ave: −0.0078
  Δ R CMRgI (EOT-BL) Visual Cortex Left, Ave: −0.0775
  Δ R CMRgI (EOT-BL) Visual Cortex Right, Ave: −0.0730
[1]; [14]
  Δ R CMRgI (EOT-BL) Sensory Motor Cortex Left, Ave: 0.0244
  Δ R CMRgI (EOT-BL) Sensory Motor Cortex Right, Ave: 0.0251
  Δ R CMRgI (EOT-BL) Visual Cortex Left, Ave: −0.0685
  Δ R CMRgI (EOT-BL) Visual Cortex Right, Ave: −0.0604
[1]; 3 to 90 mg
  dose dependence of effect on FDG-PET outcomes: dose-dependent
[1]; two week treatment
  effect on glucose metabolism in the brain: altered the glucose metabolism in the brain
[1]; voxel-wise (SPM) analysis, even at the lowest 3 mg
  Blood Brain Barrier penetration inferred from FDG-PET: penetrates the Blood Brain Barrier (BBB)
P-glycoprotein (P-gp)
  substrate for P-gp: not a substrate for P-gp
Caco-2
  Papparent: 114.4 ×10⁻⁶ cm/s
